Six compounds from ChEMBL document CHEMBL4038342, “Hydrophilic, Potent, and Selective 7-Substituted 2-Aminoquinolines as Improved Human Neuronal Nitric Oxide Synthase Inhibitors” (J Med Chem, 2017) can be followed below.

Each structure is given as a SMILES string.

The nature of data set [1]: Permeability from apical to basolateral side in human Caco2 cells assessed as drug recovery at 10 uM after 2 hrs by LC/MS/MS analysis. In kind it is ADME, cell-based. The conditions noted are these: caco-2, 2 h. (In general: Passage across Caco-2 layers is used to estimate intestinal permeability.)
A short description of data set [2]: Permeability from basolateral to apical side in human Caco2 cells assessed as drug recovery at 10 uM after 2 hrs by LC/MS/MS analysis. In kind it is ADME, cell-based. Conditions: caco-2, 2 h.
The target in data set [3] is Nitric oxide synthase 1 (Homo sapiens, UniProt P29475).
Description: Inhibition of recombinant human nNOS expressed in Escherichia coli using L-arginine as substrate after 30 secs by hemoglobin capture assay
In data set [4] the target is T1, Nitric oxide synthase 3 (Bos taurus, UniProt P29473).
T1 sequence (P29473 whole entry): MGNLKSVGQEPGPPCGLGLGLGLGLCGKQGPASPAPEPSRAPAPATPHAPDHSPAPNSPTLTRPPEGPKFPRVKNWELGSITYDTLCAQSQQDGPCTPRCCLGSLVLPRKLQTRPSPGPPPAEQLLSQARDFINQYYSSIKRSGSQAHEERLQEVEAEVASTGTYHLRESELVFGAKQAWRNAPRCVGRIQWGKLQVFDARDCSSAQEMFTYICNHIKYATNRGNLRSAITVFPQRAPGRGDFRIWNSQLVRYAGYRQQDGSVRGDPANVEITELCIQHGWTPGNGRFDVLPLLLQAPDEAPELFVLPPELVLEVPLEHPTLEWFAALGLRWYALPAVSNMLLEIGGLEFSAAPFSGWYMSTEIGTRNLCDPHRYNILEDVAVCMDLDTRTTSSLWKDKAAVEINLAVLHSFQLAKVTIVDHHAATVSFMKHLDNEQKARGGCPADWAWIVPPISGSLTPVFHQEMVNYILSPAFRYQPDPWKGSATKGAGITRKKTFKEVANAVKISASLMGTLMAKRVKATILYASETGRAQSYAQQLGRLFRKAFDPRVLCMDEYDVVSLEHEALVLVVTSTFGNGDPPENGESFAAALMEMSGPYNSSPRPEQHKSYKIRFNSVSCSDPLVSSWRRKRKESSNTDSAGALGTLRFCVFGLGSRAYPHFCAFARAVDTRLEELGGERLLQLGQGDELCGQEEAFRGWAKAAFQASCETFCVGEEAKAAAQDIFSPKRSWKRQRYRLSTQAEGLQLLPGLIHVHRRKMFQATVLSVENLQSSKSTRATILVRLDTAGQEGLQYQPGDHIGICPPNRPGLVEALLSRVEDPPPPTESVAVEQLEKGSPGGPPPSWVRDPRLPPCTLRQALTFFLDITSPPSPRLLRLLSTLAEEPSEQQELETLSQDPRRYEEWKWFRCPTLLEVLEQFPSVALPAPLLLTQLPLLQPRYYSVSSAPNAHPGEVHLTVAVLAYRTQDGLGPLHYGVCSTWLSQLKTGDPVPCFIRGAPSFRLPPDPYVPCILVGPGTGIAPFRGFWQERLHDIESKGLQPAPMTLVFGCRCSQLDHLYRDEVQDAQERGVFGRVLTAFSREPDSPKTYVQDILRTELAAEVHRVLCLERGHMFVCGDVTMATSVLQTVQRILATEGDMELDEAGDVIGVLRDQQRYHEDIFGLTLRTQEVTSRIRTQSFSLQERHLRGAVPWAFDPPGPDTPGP
Description: Inhibition of recombinant bovine eNOS expressed in Escherichia coli using L-arginine as substrate after 30 secs by hemoglobin capture assay.

In data set [5] the target is Nitric oxide synthase 1 (Rattus norvegicus, UniProt P29476).
Description: Inhibition of recombinant rat nNOS expressed in Escherichia coli using L-arginine as substrate after 30 secs by hemoglobin capture assay
The target in data set [6] is T2, Nitric oxide synthase, inducible (Mus musculus, UniProt P29477).
T2 sequence (P29477 whole entry): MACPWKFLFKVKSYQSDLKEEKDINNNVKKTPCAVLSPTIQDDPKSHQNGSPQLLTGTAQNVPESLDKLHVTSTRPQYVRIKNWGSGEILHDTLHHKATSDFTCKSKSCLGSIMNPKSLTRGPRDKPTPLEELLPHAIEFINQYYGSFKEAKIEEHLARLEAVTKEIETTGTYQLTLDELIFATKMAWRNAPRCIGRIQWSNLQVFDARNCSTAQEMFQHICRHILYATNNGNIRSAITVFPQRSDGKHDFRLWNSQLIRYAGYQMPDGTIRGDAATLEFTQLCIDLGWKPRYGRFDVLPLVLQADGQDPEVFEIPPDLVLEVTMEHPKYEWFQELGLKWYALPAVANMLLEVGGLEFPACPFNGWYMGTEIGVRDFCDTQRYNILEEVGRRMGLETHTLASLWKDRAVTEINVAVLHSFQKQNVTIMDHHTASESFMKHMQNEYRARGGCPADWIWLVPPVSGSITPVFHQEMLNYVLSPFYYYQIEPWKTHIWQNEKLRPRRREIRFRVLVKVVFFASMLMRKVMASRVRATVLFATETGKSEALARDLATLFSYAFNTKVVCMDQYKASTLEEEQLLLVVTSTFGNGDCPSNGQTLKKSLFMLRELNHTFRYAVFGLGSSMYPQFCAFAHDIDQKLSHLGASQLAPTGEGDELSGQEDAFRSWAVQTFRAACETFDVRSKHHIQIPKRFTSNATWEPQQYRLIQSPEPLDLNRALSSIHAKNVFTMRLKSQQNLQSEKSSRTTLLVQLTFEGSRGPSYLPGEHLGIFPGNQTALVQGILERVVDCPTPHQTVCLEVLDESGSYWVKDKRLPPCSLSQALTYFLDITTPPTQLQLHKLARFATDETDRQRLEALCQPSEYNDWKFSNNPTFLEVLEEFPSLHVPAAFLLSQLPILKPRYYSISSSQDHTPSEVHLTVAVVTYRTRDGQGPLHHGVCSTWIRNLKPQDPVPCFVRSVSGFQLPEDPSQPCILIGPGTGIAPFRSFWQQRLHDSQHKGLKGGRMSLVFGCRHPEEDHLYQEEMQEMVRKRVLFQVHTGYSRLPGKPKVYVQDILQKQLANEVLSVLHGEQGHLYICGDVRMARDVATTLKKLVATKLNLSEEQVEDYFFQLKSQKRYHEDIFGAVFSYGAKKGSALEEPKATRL
Description: Inhibition of recombinant mouse macrophage iNOS expressed in Escherichia coli using L-arginine as substrate after 30 secs by hemoglobin capture assay.

By Ki is commonly meant a measure of affinity in units of concentration, obtained from inhibition or displacement.

Nitric oxide synthase 1 (Homo sapiens, UniProt P29475), sequence (P29475 whole entry): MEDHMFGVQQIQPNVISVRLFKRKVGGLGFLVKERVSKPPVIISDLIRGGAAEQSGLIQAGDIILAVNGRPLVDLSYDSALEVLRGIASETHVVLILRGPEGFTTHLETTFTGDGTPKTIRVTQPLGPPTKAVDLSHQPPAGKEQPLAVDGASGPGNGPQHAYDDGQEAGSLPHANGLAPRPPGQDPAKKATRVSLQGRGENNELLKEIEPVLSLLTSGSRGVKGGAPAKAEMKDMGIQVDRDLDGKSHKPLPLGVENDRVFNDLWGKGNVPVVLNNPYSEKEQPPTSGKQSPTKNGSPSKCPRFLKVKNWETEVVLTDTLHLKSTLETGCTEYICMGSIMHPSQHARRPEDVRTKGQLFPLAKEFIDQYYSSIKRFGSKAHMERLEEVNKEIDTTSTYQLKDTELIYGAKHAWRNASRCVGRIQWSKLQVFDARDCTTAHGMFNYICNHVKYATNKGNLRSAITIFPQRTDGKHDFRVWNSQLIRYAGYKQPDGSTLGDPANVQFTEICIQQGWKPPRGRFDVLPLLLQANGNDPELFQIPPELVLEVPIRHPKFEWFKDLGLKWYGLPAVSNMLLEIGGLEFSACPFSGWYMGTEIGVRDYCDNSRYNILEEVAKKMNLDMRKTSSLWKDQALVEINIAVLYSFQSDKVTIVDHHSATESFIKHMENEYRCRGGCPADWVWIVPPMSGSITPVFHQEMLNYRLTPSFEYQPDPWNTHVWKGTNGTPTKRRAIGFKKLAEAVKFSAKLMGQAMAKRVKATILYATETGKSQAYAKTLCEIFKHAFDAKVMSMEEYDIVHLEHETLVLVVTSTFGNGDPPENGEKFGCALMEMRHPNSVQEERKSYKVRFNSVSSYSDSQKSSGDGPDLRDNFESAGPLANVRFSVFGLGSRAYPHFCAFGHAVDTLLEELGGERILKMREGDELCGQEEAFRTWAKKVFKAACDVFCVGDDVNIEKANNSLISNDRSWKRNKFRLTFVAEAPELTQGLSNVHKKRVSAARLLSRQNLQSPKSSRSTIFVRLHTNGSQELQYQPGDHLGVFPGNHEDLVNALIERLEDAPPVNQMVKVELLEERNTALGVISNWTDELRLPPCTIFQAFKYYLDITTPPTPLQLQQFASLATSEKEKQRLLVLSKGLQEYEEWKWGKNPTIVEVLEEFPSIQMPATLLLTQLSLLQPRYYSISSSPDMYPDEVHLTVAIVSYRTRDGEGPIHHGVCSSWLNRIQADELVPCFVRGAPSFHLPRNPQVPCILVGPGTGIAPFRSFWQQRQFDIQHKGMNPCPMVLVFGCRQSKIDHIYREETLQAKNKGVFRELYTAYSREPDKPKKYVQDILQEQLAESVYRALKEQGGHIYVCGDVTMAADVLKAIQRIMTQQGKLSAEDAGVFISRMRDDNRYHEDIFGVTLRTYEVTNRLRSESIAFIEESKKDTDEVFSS
Nitric oxide synthase 1 (Rattus norvegicus, UniProt P29476), sequence (P29476 whole entry): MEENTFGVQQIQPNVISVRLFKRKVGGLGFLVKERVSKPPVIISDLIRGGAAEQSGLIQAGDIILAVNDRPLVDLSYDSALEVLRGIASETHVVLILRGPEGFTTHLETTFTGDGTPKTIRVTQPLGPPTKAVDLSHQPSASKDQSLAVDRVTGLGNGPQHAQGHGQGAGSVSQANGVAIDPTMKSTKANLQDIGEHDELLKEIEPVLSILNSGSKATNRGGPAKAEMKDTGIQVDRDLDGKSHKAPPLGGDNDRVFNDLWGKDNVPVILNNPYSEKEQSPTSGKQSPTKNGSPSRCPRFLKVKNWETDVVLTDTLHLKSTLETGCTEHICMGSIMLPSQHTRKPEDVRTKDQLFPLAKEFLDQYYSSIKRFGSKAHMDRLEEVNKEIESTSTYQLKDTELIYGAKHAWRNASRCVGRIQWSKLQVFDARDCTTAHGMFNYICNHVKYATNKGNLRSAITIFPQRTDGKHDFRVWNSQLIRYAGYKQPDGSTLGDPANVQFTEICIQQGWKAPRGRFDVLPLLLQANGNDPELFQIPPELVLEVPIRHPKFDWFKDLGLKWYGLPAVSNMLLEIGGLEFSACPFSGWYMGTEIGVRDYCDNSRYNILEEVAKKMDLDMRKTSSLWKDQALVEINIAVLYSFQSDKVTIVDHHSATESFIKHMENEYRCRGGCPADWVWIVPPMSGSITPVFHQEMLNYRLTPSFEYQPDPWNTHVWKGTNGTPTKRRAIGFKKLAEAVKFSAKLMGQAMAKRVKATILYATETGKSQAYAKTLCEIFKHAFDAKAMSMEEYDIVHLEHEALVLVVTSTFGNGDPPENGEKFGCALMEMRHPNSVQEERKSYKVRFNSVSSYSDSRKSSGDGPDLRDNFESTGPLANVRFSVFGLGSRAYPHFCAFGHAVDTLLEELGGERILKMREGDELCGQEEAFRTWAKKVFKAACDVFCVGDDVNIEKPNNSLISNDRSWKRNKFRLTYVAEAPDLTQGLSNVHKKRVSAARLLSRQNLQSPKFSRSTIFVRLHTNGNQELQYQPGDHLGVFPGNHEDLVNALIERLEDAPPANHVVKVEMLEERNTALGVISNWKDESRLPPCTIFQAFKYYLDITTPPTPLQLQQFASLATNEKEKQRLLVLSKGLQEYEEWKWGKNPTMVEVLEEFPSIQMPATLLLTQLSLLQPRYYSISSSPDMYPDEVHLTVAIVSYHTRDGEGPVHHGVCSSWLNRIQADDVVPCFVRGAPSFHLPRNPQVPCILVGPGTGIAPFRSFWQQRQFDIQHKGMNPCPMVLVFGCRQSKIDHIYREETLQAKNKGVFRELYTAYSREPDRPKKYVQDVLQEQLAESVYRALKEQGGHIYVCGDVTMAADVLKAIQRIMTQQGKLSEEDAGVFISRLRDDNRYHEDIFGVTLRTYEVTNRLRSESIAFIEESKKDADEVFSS

For `Cc1cc(CCNCc2ccc3c(C)cc(N)nc3c2)ccc1C#N`, the Drug recovery in data set [1] was determined as 58.5%; in data set [2], 83%.
Turning to `Nc1ccc2ccc(CNCCCc3cccnc3)cc2n1`, the inhibitory constant (Ki) came to 0.108 µM in data set [3], 1.04 µM in data set [4] and 0.038 µM in data set [5].
`CN(C)c1ccc(CNCc2ccc3ccc(N)nc3c2)cc1`: the Ki in data set [6] amounted to 42.2 µM; in data set [4] it was 8.42 µM; in data set [5] it was 0.522 µM.
Take `COc1ccncc1CCCNCc1ccc2ccc(N)nc2c1`: in data set [6], the Ki turned out to be 17.2 µM.
On to `Cc1ccncc1CCCNCc1ccc2ccc(N)nc2c1`, for which the results for the Ki in data set [6], in data set [3] and in data set [4] were 13.8 µM, 0.13 µM and 0.562 µM, respectively.
On to `CN(C)c1cccc(CNCc2ccc3ccc(N)nc3c2)c1`, for which the Ki in data set [6] stood at 30.1 µM; in data set [3] it was 1.02 µM; in data set [4], 6.53 µM; in data set [5], 0.421 µM.
